Consider 12 molecules from US7790737B2, “Substituted pyrimidine compounds and their utility as CETP inhibitors” (Kowa Company, Ltd., priority 2007, dated 2010).

Structures are written as SMILES.

The target in the first assay is T1, CETP (Homo sapiens, UniProt P11597).
T1 construct: from tissue; host or cells: human plasma
T1 sequence (P11597 18-493): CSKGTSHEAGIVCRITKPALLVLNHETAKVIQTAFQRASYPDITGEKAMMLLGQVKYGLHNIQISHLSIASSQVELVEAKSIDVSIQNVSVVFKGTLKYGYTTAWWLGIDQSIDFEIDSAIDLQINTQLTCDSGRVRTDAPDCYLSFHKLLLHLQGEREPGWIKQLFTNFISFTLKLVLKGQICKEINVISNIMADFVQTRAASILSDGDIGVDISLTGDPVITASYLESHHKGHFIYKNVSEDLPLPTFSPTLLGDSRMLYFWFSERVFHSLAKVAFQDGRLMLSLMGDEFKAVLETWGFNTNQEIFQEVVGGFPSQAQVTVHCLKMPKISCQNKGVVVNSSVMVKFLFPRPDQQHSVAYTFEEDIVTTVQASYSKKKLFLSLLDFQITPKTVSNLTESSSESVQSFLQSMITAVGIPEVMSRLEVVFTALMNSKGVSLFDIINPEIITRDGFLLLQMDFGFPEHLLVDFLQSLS
Put plainly: Measurement of CETP inhibitory action in human plasma (Roar Biomedical CETP Activity kit, fluorescence). It counts as biochemical. The conditions noted are these: human plasma incubated with compound at 37° C. for 4 hours; calculated from CETP inhibitory rate at two or more concentrations; read-out: IC50 (concentration inhibiting the CETP activity by 50%). The method, then: A solution obtained by dissolving an exemplary compound or a comparative compound in polyethylene glycol/N-methyl-2-pyrrolidone (vol/vol=1/1) was added to human plasma, and the mixture was incubated in an incubator at 37° C. for 4 hours. The CETP activity in this plasma was measured with Cholesteryl Ester Transfer Protein Activity kit (Roar Biomedical, catalog No.: RB-CETP). Specifically, to each well of a 96-well plate, 95 μL of a buffer (10 mM Tris, 150 mM NaCl, 2 mM EDTA, pH 7.4), 2 μL of Donor particle and 2 μL of Acceptor particle were added, 1 μL of the human plasma after the incubation was added to the mixture, and the mixture was incubated in an incubator at 37° C. for 2 hours. After completion of the incubation, fluorescence intensity (FLU) was measured with a fluorescence plate reader (excitation wavelength: 465 nm, emission wavelength: 535 nm). In accordance with the following equation 1, the CETP activity (% of control) was obtained for the compounds of the examples and the comparative compounds for two or more concentrations. CETP activity (% of control)=(Sample FLU−Blank FLU)×100/(Control FLU−Blank FLU) (Equation 1) In the equation, the terms have the following meanings: Blank FLU: Fluorescence intensity of sample not added with plasma Control FLU: Fluorescence intensity of plasma not added with solution of compound Sample FLU: Fluorescence intensity of plasma added with solution of compound
A value obtained by subtracting the value of the CETP activity from 100 was defined as the CETP inhibitory rate of each exemplary compound, and a concentration inhibiting the CETP activity by 50% (IC50) was calculated for each exemplary compound from the values of the CETP inhibitory rate at two or more concentrations. As the comparative compound, the following compound was used, which is the pyrimidine compound having a benzyl(heterocyclylmethyl)amine structure described in Example 66 of Patent document 10 (International Patent Publication WO2006/073973).
As for `CCN(CC1CCCC1)c1nc2ccccc2cc1CN(c1ncc(OCCS(C)(=O)=O)cn1)C(C)c1cc(C(F)(F)F)cc(C(F)(F)F)c1` (centres unmarked) [Example 7, 3-[({1-[3,5-bis(trifluoromethyl)phenyl]ethyl}{5-[2-(methylsulfonyl)ethoxy]pyrimidin-2-yl}amino)methyl]-N-(cyclopentylmethyl)-N-ethylquinolin-2-amine], the potency estimated from few doses was 50 nM.

As for `CCN(CC1CCCC1)c1nc2c(cc1CN(c1ncc(OCCS(C)(=O)=O)cn1)C(C)c1cc(C(F)(F)F)cc(C(F)(F)F)c1)c(C)nn2C` (centres unmarked) [Example 5, 5-[({1-[3,5-bis(trifluoromethyl)phenyl]ethyl}{5-[2-(methylsulfonyl)ethoxy]pyrimidin-2-yl}amino)methyl]-N-(cyclopentylmethyl)-N-ethyl-1,3-dimethyl-1H-pyrazolo[3,4-b]pyridin-6-amine], the potency estimated from few doses is 35 nM.

On to `CCN(CC1CCCC1)c1nc2ccccc2cc1CN(Cc1cc(C(F)(F)F)cc(C(F)(F)F)c1)c1ncccn1` [Comparative Compound 1, reference compound], for which the potency estimated from few doses is 20000 nM.

`CCc1ccc(CN(c2ncc(OCCS(C)(=O)=O)cn2)C(C)c2cc(C(F)(F)F)cc(C(F)(F)F)c2)c(N(CC)CC2CCCC2)n1` (centres unmarked) [Example 17, N-{1-[3,5-bis(trifluoromethyl)phenyl]ethyl}-N-({2-[(cyclopentylmethyl)(ethyl)amino]-6-ethylpyridin-3-yl}methyl)-5-[2-(methylsulfonyl)ethoxy]pyrimidin-2-amine]: the potency estimated from few doses is 45 nM.

As for `CCN(CC1CCCC1)c1nc2ccc(C(F)(F)F)cc2cc1CN(c1ncc(OCCS(C)(=O)=O)cn1)C(C)c1cc(C(F)(F)F)cc(C(F)(F)F)c1` (centres unmarked) [Example 11, 3-[({1-[3,5-bis(trifluoromethyl)phenyl]ethyl}{5-[2-(methylsulfonyl)ethoxy]pyrimidin-2-yl}amino)methyl]-N-(cyclopentylmethyl)-N-ethyl-6-trifluoromethylquinolin-2-amine], the potency estimated from few doses is 80 nM.

`CCN(CC1CCCC1)c1ccc(OC)nc1CN(c1ncc(OCC[S+](C)[O-])cn1)C(C)c1cc(C(F)(F)F)cc(C(F)(F)F)c1` (centres unmarked) [Example 2, N-{1-[3,5-bis(trifluoromethyl)phenyl]ethyl}-N-({3-[(cyclopentylmethyl)(ethyl)amino]-6-methoxypyridin-2-yl}methyl)-5-[2-(methylsulfinyl)ethoxy]pyrimidin-2-amine]: the potency estimated from few doses is 150 nM.

On to `CCN(CC1CCCC1)c1nc(C)ccc1CN(c1ncc(OCCS(C)(=O)=O)cn1)C(C)c1cc(C(F)(F)F)cc(C(F)(F)F)c1` (centres unmarked) [Example 15, N-{1-[3,5-bis(trifluoromethyl)phenyl]ethyl}-N-({2-[(cyclopentylmethyl)(ethyl)amino]-6-methylpyridin-3-yl}methyl)-5-[2-(methylsulfonyl)ethoxy]pyrimidin-2-amine], for which the potency estimated from few doses is 200 nM. The same measure, in the same setting: with `CCN(CC1CCCC1)c1nc2c(cc1CN(c1ncc(OCCS(C)(=O)=O)cn1)C(C)c1cc(C#N)cc(C(F)(F)F)c1)c(C)nn2C` (centres unmarked) [Example 23, 3-{1-[({6-[(cyclopentylmethyl)(ethyl)amino]-1,3-dimethyl-1H-pyrazolo[3,4-b]pyridin-5-yl}methyl){5-[2-(methylsulfonyl)ethoxy]pyrimidin-2-yl}amino]ethyl}-5-(trifluoromethyl)benzonitrile] the figure was 150 nM.

Take `CCN(CC1CCCC1)c1nc(C)c(C)cc1CN(c1ncc(OCCS(C)(=O)=O)cn1)C(C)c1cc(C(F)(F)F)cc(C(F)(F)F)c1` (centres unmarked) [Example 19, N-{1-[3,5-bis(trifluoromethyl)phenyl]ethyl}-N-({2-[(cyclopentylmethyl)(ethyl)amino]-5,6-dimethylpyridin-3-yl}methyl)-5-[2-(methylsulfonyl)ethoxy]pyrimidin-2-amine]: the potency estimated from few doses is 30 nM. Same read-out and setting: with `CCN(CC1CCCC1)c1nc2ccc(OC)cc2cc1CN(c1ncc(OCCS(C)(=O)=O)cn1)C(C)c1cc(C(F)(F)F)cc(C(F)(F)F)c1` (centres unmarked) [Example 9, 3-[({1-[3,5-bis(trifluoromethyl)phenyl]ethyl}{5-[2-(methylsulfonyl)ethoxy]pyrimidin-2-yl}amino)methyl]-N-(cyclopentylmethyl)-N-ethyl-6-methoxyquinolin-2-amine] the figure was 500 nM. As for `CCN(CC1CCCC1)c1ccc(OC)nc1CN(c1ncc(OCCS(C)(=O)=O)cn1)C(C)c1cc(C(F)(F)F)cc(C(F)(F)F)c1` (centres unmarked) [Example 3, N-{1-[3,5-bis(trifluoromethyl)phenyl]ethyl}-N-({3-[(cyclopentylmethyl)(ethyl)amino]-6-methoxypyridin-2-yl}methyl)-5-[2-(methylsulfonyl)ethoxy]pyrimidin-2-amine], the potency estimated from few doses was 150 nM. On the same count and under the same terms, next, `CCN(CC1CCCC1)c1nc2ccc(C)cc2cc1CN(c1ncc(OCCS(C)(=O)=O)cn1)C(C)c1cc(C(F)(F)F)cc(C(F)(F)F)c1` (centres unmarked) [Example 13, 3-[({1-[3,5-bis(trifluoromethyl)phenyl]ethyl}{5-[2-(methylsulfonyl)ethoxy]pyrimidin-2-yl}amino)methyl]-N-(cyclopentylmethyl)-N-ethyl-6-methylquinolin-2-amine]: 80 nM.

In the next assay the test system is CETP. The assay can be described thus: Measurement of CETP inhibitory activity in blood of hamster (single oral administration). The format is in vivo. The conditions noted are these: hamster plasma, single oral dose 30 mg/kg in olive oil, blood collected 2 hours after administration, n=3; control 33.7 ± 2.3. The method, then:
1: Labeling of Donor Lipoprotein (HDL3 Fraction) with ^3H-Cholesterol and Preparation of Acceptor Lipoprotein (LDL Fraction)
The donor lipoprotein was prepared by adding KBr to plasma of healthy human subject (50 mL) to adjust the specific gravity (d) of the plasma to be 1.125, centrifuging the mixture at 100,000 rpm and 4° C. for 2.5 hours (Optima Max-E TLA-100.2 rotor, Beckman), and collecting the lower layer (HDL3 fraction, d>1.125). The resulting fraction was dialyzed against PBS (10 mM Na2HPO4, 10 mM NaH2PO4, 0.15 M NaCl, 1 mM EDTA-2Na, pH 7.4). Then, a 95% ethanol solution of 9.25 MBq 1, 2-3H(N)cholesterol (NEN™, Life Science Products, USA) was added to the sample with stirring, and the mixture was incubated at 37° C. for 18 hours. […]
To 10 μL of the hamster plasma, 5 μL of ^3H-labeled HDL3 and […] of LDL were added, and the final volume of the mixture was made 600 μL with a TBS solution (10 mM Tris, 0.15 M NaCl, pH 7.4). […] Then, radioactivity of 3H was measured with a liquid scintillation counter (TRI-CARB 2700 TR, Packard). […] CETP activity (%)=(Blank dpm−Sample dpm)×100/(Blank dpm) (Equation 2) In the equation, the terms have the following meanings: Blank dpm: Value of 3H radioactivity of sample not added with plasma Sample dpm: Value of ^3H radioactivity of sample added with compound or control sample.
`CCN(CC1CCCC1)c1nc2c(cc1CN(c1ncc(OCCS(C)(=O)=O)cn1)C(C)c1cc(C(F)(F)F)cc(C(F)(F)F)c1)c(C)nn2C` (centres unmarked) [Example 5, 5-[({1-[3,5-bis(trifluoromethyl)phenyl]ethyl}{5-[2-(methylsulfonyl)ethoxy]pyrimidin-2-yl}amino)methyl]-N-(cyclopentylmethyl)-N-ethyl-1,3-dimethyl-1H-pyrazolo[3,4-b]pyridin-6-amine]: the “Average CETP activity ± standard deviation (%)” value was 3.7 ± 3.2%. Same read-out and setting: with `CCN(CC1CCCC1)c1nc2ccccc2cc1CN(Cc1cc(C(F)(F)F)cc(C(F)(F)F)c1)c1ncccn1` [Comparative Compound 1, reference compound] the figure was 30.3 ± 4.2%.
